Measured values: US10894782B2, “Modulators of P97 AAA ATPase activity” (University of Pittsburgh—Of the Commonwealth System of …, priority 2016, dated 2021)

Each compound was assayed against P97 (Homo sapiens (Human), UniProt P55072) (assay: P97 Biomolgreen ATPase assay, 200 μM ATP). Settings: not given.
Format: biochemical

Sequence of P97 (P55072 whole entry): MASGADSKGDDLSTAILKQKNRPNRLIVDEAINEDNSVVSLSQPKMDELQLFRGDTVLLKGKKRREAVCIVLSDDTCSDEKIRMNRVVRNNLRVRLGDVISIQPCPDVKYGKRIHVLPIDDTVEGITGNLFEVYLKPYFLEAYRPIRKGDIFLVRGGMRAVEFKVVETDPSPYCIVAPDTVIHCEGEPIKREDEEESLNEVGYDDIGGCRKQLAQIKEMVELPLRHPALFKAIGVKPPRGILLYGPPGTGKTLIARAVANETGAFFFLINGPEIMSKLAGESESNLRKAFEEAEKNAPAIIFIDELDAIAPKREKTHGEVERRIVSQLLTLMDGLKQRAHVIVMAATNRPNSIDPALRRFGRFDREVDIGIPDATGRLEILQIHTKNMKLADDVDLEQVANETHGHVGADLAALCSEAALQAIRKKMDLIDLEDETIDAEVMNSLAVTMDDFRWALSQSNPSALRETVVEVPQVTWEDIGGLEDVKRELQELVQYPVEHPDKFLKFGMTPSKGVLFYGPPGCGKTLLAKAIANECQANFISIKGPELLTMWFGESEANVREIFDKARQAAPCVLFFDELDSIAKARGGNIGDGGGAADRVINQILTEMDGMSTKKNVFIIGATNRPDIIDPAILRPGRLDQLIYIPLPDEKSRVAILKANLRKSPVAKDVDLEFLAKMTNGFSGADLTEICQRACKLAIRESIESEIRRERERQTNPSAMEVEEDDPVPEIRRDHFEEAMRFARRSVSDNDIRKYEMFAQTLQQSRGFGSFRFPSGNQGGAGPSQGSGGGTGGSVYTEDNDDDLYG

| P97 Biomolgreen; 200 μM ATP; IC50 (μM) | Compound |
| --- | --- |
| not active | CCC(=O)NCC#Cc1ccc(OCc2nnc(SCC3CO3)n2-c2cccnc2)cc1C (stereo not shown) [Compound 129] |

Same assay, conditions: P97 Biomolgreen, IC50 (μM)

| IC50 | Compound |
| --- | --- |
| 0.07 µM | [2H]C1([2H])C([2H])([2H])C([2H])([2H])C([2H])(Sc2nnc(COc3ccc(C#CCOC(=O)N4CCC4)c(C)c3)n2-c2cccnc2)C1([2H])[2H] [Compound 37] |
| 0.034 µM | [2H]C1([2H])C([2H])([2H])C([2H])([2H])C([2H])(Sc2nnc(COc3ccc(C#CCOC(=O)NCC(F)(F)F)c(C)c3)n2-c2cccnc2)C1([2H])[2H] [Compound 20] |
| 0.052 µM | [2H]C1([2H])C([2H])([2H])C([2H])([2H])C([2H])(Sc2nnc(COc3ccc(C#CCOC(=O)NCCc4ncnn4C)c(C)c3)n2-c2cccnc2)C1([2H])[2H] [Compound 31] |
| 0.03 µM | [2H]C1([2H])C([2H])([2H])C([2H])([2H])C([2H])(Sc2nnc(COc3ccc(C#CCO)c(F)c3)n2-c2cccnc2)C1([2H])[2H] [Compound 105] |
| 0.068 µM | [2H]C1([2H])C([2H])([2H])C([2H])([2H])C([2H])(Sc2nnc(COc3ccc(C#CC(C)O)c(C)c3)n2-c2cccnc2)C1([2H])[2H] (stereo not shown) [Compound 26] |
| 0.032 µM | [2H]C1([2H])C([2H])([2H])C([2H])([2H])C([2H])(Sc2nnc(COc3ccc(C#CCOC(=O)NC(C)C)c(C)c3)n2-c2cccnc2)C1([2H])[2H] [Compound 23] |
| 0.99 µM | [2H]C1([2H])C([2H])([2H])C([2H])([2H])C([2H])(Sc2nnc(CNc3ccc(C#CCO)c(C)c3)n2-c2cccnc2)C1([2H])[2H] [Compound 117] |
| 0.55 µM | [2H]C1([2H])C([2H])([2H])C([2H])([2H])C([2H])(Sc2nnc(COc3ccc(C#CC(O)c4ccccc4)c(C)c3)n2-c2cccnc2)C1([2H])[2H] (stereo not shown) [Compound 52] |
| 0.044 µM | [2H]C1([2H])C([2H])([2H])C([2H])([2H])C([2H])(Sc2nnc(COc3ccc(C#CCOC(=O)N4CCOCC4)c(C)c3)n2-c2cccnc2)C1([2H])[2H] [Compound 6] |
| 0.17 µM | [2H]C1([2H])C([2H])([2H])C([2H])([2H])C([2H])(Sc2nnc(COc3ccc(C#CC(C)N4CCOCC4)c(C)c3)n2-c2cccnc2)C1([2H])[2H] (stereo not shown) [Compound 3] |
| 0.016 µM | [2H]C1([2H])C([2H])([2H])C([2H])([2H])C([2H])(Sc2nnc(COc3ccc(C#CCOC(=O)NC4CCN(C)CC4)c(F)c3)n2-c2cccnc2)C1([2H])[2H] [Compound 126] |
| 0.064 µM | [2H]C1([2H])C([2H])([2H])C([2H])([2H])C([2H])(Sc2nnc(COc3ccc(C#CCOC(=O)NCc4cc(C)on4)c(C)c3)n2-c2cccnc2)C1([2H])[2H] [Compound 35] |
| 0.023 µM | [2H]C1([2H])C([2H])([2H])C([2H])([2H])C([2H])(Sc2nnc(COc3ccc(C#CCOC(=O)NCCN4CCCN(C(C)C)CC4)c(C)c3)n2-c2cccnc2)C1([2H])[2H] [Compound 32] |
| 0.016 µM | [2H]C1([2H])C([2H])([2H])C([2H])([2H])C([2H])(Sc2nnc(COc3ccc(C#CCOC(=O)NC4CCN(C)CC4)c(C)c3)n2-c2cccnc2)C1([2H])[2H] [Compound 125] |
| 0.91 µM | [2H]C1([2H])C([2H])([2H])C([2H])([2H])C([2H])(Sc2nnc(COc3ccc(C#CCOC(=O)OCC#Cc4ccc(OCc5nnc(SC6([2H])C([2H])([2H])C([2H])([2H])C([2H])([2H])C6([2H])[2H])n5-c5cccnc5)cc4C)c(C)c3)n2-c2cccnc2)C1([2H])[2H] [Compound 133] |
| 0.16 µM | [2H]C1([2H])C([2H])([2H])C([2H])([2H])C([2H])(Sc2nnc(COc3ccc(C#CCN4CCS(=O)(=O)CC4)c(C)c3)n2-c2cccnc2)C1([2H])[2H] [Compound 41] |
| 0.03 µM | [2H]C([2H])(O)C#Cc1ccc(OCc2nnc(SC3([2H])C([2H])([2H])C([2H])([2H])C([2H])([2H])C3([2H])[2H])n2-c2cccnc2)cc1F [Compound 109] |
| 0.021 µM | [2H]C1([2H])C([2H])([2H])C([2H])([2H])C([2H])(Sc2nnc(COc3cc(F)c(C#CCO)cc3F)n2-c2cccnc2)C1([2H])[2H] [Compound 123] |
| 0.034 µM | [2H]C1([2H])C([2H])([2H])C([2H])([2H])C([2H])(Sc2nnc(COc3ccc(C#CCOC(=O)NCCN4CCN(C(C)C)CC4)c(C)c3)n2-c2cccnc2)C1([2H])[2H] [Compound 21] |

Same assay, conditions: read-out: P97 Biomolgreen, IC50

| Compound | IC50 |
| --- | --- |
| C#Cc1ccc(OCc2nnc(SC3CC3)n2-c2cccnc2)cc1C [Compound 48] | 0.67 µM |
| CN1CCC(NC(=O)OCC#Cc2c(F)cc(OCc3nnc(SC4C=CCCC4)n3-c3cccnc3)cc2F)CC1 (stereo not shown) [Compound 120] | 0.012 µM |
| C#Cc1ccc(OCc2nnc(SC3CCCC3)n2-c2cccnc2)cc1C [Compound 2] | 0.049 µM |
| Cc1cc(OCc2nnc(OC3CCCC3)n2-c2cccnc2)ccc1C#CCO [Compound 99] | 0.183 µM |
| Cc1cc(OCc2nnc(SC3C=CCCC3)n2-c2cccnc2)ccc1C#CCN1C(=O)c2ccccc2C1=O (stereo not shown) [Compound 47] | 0.29 µM |
| OCC#Cc1cc(F)c(OCc2nnc(SC3C=CCCC3)n2-c2cccnc2)cc1F (stereo not shown) [Compound 114] | 0.02 µM |
| N#Cc1ccc(C#CCOCc2nnc(SC3CCCC3)n2-c2cccnc2)cc1 [Compound 56] | > 6.7 µM |
| Cc1cc(OCc2nnc(SC3C=CCCC3)n2-c2cccnc2)ccc1C#CCNC1CCCCC1 (stereo not shown) [Compound 17] | 0.04 µM |
| Cc1cc(OCc2nnc(SC3CCCC3)n2-c2cccnc2)ccc1C#CCN1C(=O)c2ccccc2C1=O [Compound 50] | 0.28 µM |
| C=CC(=O)NCC#Cc1ccc(OCc2nnc(SC3C=CCCC3)n2-c2cccnc2)cc1C (stereo not shown) [Compound 92] | 0.026 µM |
| C#Cc1ccc(OCc2nnc(SC3C=CCCC3)n2-c2cccnc2)cc1C (stereo not shown) [Compound 127] | 0.038 µM |
| CCC(=O)NCC#Cc1ccc(OCc2nnc(SC3C=CCCC3)n2-c2cccnc2)cc1C (stereo not shown) [Compound 94] | 0.03 µM |
| CC(=O)N1CCN(C(=O)OCC#Cc2ccc(OCc3nnc(SC4C=CCCC4)n3-c3cccnc3)cc2C)CC1 (stereo not shown) [Compound 102] | 0.03 µM |
| Cc1cc(OCc2nnc(SC3C=CCCC3)n2-c2cccnc2)ccc1C#CCNS(=O)(=O)C1CCN(C(=O)OC(C)(C)C)CC1 (stereo not shown) [Compound 78] | 0.09 µM |
| Cc1cc(OCc2nnc(SC3C=CCCC3)n2-c2cccnc2)ccc1C#CCN(C)S(C)(=O)=O (stereo not shown) [Compound 25] | 0.066 µM |
| Cc1cc(OCc2nnc(SC3C=CCCC3)n2-c2cccnc2)ccc1C#CCNS(=O)(=O)N1CCOCC1 (stereo not shown) [Compound 63] | 0.048 µM |
| Cc1cc(OCc2nnc(SC3C=CCCC3)n2-c2cccnc2)ccc1C#CCNC(=O)OC(C)(C)C (stereo not shown) [Compound 40] | 0.14 µM |
| Cc1cc(OCc2nnc(SC3C=CCCC3)n2-c2cccnc2)ccc1C#CCNC(=O)CCl (stereo not shown) [Compound 95] | 0.03 µM |

| Compound | IC50 |
| --- | --- |
| Cc1cc(OCc2nnc(SC3C=CCCC3)n2-c2cccnc2)ccc1C#CCOC(=O)N1CCN(C)CC1 (stereo not shown) [Compound 76] | 0.03 µM |
| Cc1cc(OCc2nnc(SC3C=CCCC3)n2-c2cccnc2)ccc1C#CCNCc1ccc(F)cc1 (stereo not shown) [Compound 39] | 0.11 µM |
| Cc1cc(OCc2nnc(SC3C=CCCC3)n2-c2cccnc2)ccc1C#CCNS(=O)(=O)c1ccc(F)cc1 (stereo not shown) [Compound 15] | 0.074 µM |
| Cc1cc(OCc2nnc(SC3C=CCCC3)n2-c2cccnc2)ccc1C#CCNC(=O)NCC#Cc1ccc(OCc2nnc(SC3C=CCCC3)n2-c2cccnc2)cc1C (stereo not shown) [Compound 134] | 0.25 µM |
| OCC#Cc1ccc(OCc2nnc(SC3C=CCCC3)n2-c2cccnc2)c(F)c1F (stereo not shown) [Compound 113] | 0.04 µM |
| Cc1cc(OCc2nnc(SC3C=CCCC3)n2-c2cccnc2)ccc1C#CCNS(=O)(=O)N1CCN(C)CC1 (stereo not shown) [Compound 65] | 0.047 µM |
| Cc1cc(OCc2nnc(SC3C=CCCC3)n2-c2cccnc2)ccc1C#CCNS(=O)(=O)N(C)C (stereo not shown) [Compound 33] | 0.043 µM |
| Cc1cc(OCc2nnc(SC3CCCC3)n2-c2cccnc2)ccc1C#CCNS(C)(=O)=O [Compound 13] | 0.05 µM |
| Cc1cc(OCc2nnc(SC3CCCC3)n2-c2cccnc2)ccc1C#CCO [Compound 58] | 0.093 µM |
| Cc1cc(OCc2nnc(SC3C=CCCC3)n2-c2cccnc2)ccc1C#CC1(O)COC1 (stereo not shown) [Compound 34] | 0.098 µM |
| Cc1cc(OCc2nnc(SCC3CC3)n2-c2cccnc2)ccc1C#CCO [Compound 128] | 0.13 µM |
| Cc1cc(OCc2nnc(SC3C=CCCC3)n2-c2cccnc2)ccc1C#CCN (stereo not shown) [Compound 4] | 0.044 µM |
| Cc1cc(OCc2nnc(SC3CCCC3)n2-c2cccnc2)ccc1C#CCOC(=O)NCCNC(=O)CC1[C@H]2CC3C[C@H](C2)C[C@H]1C3 (stereo partly shown) [Compound 110] | 0.06 µM |
| CC(=O)NCC#Cc1ccc(OCc2nnc(SC3C=CCCC3)n2-c2cccnc2)cc1C (stereo not shown) [Compound 83] | 0.046 µM |
| N#Cc1cc(OCc2nnc(SC3C=CCCC3)n2-c2cccnc2)ccc1C#CCO (stereo not shown) [Compound 115] | 0.1 µM |
| Cc1cc(OCc2nnc(S(=O)(=O)C3C=CCCC3)n2-c2cccnc2)ccc1C#CCO (stereo not shown) [Compound 98] | 4.82 µM |
| Cc1cc(OCc2nnc(SC3CCCC3)n2-c2cccnc2)ccc1C#CCCc1ccccc1 [Compound 9] | 0.1 µM |
| Cc1cc(OCc2nnc(SC3CCCC3)n2-c2cccnc2)ccc1C#CCNC(=O)C(C)(C)C [Compound 10] | 0.092 µM |

More lines, now with the values ahead:

| IC50 | Compound |
| --- | --- |
| 0.11 µM | Cc1cc(OCc2nnc(SC3C=CCCC3)n2-c2cccnc2)ccc1C#CC(OC(=O)NCCN1CCN(C(C)C)CC1)C(F)(F)F (stereo not shown) [Compound 62] |
| 0.011 µM | Cc1cc(OCc2nnc(SC3C=CCCC3)n2-c2cccnc2)ccc1C#CCOC(=O)NCC1(N2CCN(C(C)C)CC2)CCC1 (stereo not shown) [Compound 30] |
| 0.03 µM | Cc1cc(OCc2nnc(SC3C=CCCC3)n2-c2cccnc2)ccc1C#CCOC(=O)N1CCN(C(C)C)CC1 (stereo not shown) [Compound 101] |
| 0.027 µM | Cc1cc(OCc2nnc(SC3CCCC3)n2-c2cccnc2)ccc1C#CCOC(=O)NC(C)C [Compound 22] |
| 0.098 µM | Cc1cc(OCc2nnc(CC3CCCC3)n2-c2cccnc2)ccc1C#CCOC(=O)NCCC(=O)N1CCN(C)CC1 [Compound 70] |
| 0.013 µM | CN1CCN(CCNC(=O)OCC#Cc2ccc(OCc3nnc(SC4C=CCCC4)n3-c3cccnc3)cc2F)CC1 (stereo not shown) [Compound 107] |
| 0.043 µM | CN1CCN(CCNC(=O)OCC#Cc2ccc(OCc3nnc(SC4C=CCCC4)n3-c3cccnc3)cc2C(F)(F)F)CC1 (stereo not shown) [Compound 82] |
| 0.934 µM | Cc1cc(OCc2nnc(SC3C=CCCC3)n2-c2cncc(Cl)c2)ccc1C#CCOC(=O)NCCN1CCN(C)CC1 (stereo not shown) [Compound 85] |
